Measured values taken from ChEMBL document CHEMBL1201862, “PubChem BioAssay data set” (2004).
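The compound was tested at five concentrations on cells cultured in 96-well plates, with a 48-hour exposure period. GI50: concentration for 50% inhibition of growth.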 Active and inactive are the calls of the source. Cut-off read from the data, not from the text of the source: active = GI50 up to about 1.1 µM and inactive = higher.

Columns and labels:
Assay in all cases: growth of human tumour cells (NCI), 48 h
CAKI-1 = system: CAKI-1
CCRF-CEM = system: CCRF-CEM
COLO 205 = system: COLO 205
HCT-116 = system: HCT-116
HL-60 = system: HL-60
HOP-92 = system: HOP-92
HT-29 = system: HT-29
K562 = system: K562
MDA-N = system: MDA-N
MOLT-4 = system: MOLT-4
NCI-H226 = system: NCI-H226
OVCAR-8 = system: OVCAR-8
PC-3 = system: PC-3
RPMI-8226 = system: RPMI-8226
SNB-19 = system: SNB-19
SW-620 = system: SW-620
U-251 = system: U-251
HCT-15 = system: HCT-15
NCI/ADR-RES = system: NCI/ADR-RES

Row | Structure (SMILES) | GI50 (CAKI-1) | GI50 (CCRF-CEM) | GI50 (COLO 205) | GI50 (HCT-116) | GI50 (HL-60) | GI50 (HOP-92) | GI50 (HT-29) | GI50 (K562) | GI50 (MDA-N) | GI50 (MOLT-4) | GI50 (NCI-H226) | GI50 (OVCAR-8) | GI50 (PC-3) | GI50 (RPMI-8226) | GI50 (SNB-19) | GI50 (SW-620) | GI50 (U-251) | GI50 (HCT-15) | GI50 (NCI/ADR-RES)
1 | COC(=O)/C=C(\CC(=O)OC)n1nnnc1[C@@H]1C[C@H](COC(c2ccccc2)(c2ccccc2)c2ccccc2)[C@H]2OC(C)(C)O[C@H]21 | > 100 µM (inactive) | 22.9 µM (inactive) | 39.3 µM (inactive) | 89.1 µM (inactive) | > 100 µM (inactive) | > 100 µM (inactive) | > 100 µM (inactive) | 65.5 µM (inactive) | > 100 µM (inactive) | > 100 µM (inactive) | > 100 µM (inactive) | > 100 µM (inactive) | > 100 µM (inactive) | 11.1 µM (inactive) | > 100 µM (inactive) | > 100 µM (inactive) | > 100 µM (inactive) |  | 
2 | N#Cc1c(-c2ccc(Cl)cc2)cc(-c2ccc(Nc3ccnc4cc(C(F)(F)F)ccc34)cc2)nc1N | 57.7 µM (inactive) | 12.4 µM (inactive) | 29.4 µM (inactive) | 10.6 µM (inactive) |  |  | 16.6 µM (inactive) | 14.5 µM (inactive) | 32.8 µM (inactive) | 14.6 µM (inactive) | 24.7 µM (inactive) | > 100 µM (inactive) | 32.9 µM (inactive) | 23.4 µM (inactive) | 16.9 µM (inactive) | 32.3 µM (inactive) | 18.7 µM (inactive) | 17.9 µM | > 100 µM (inactive)
3 | N#C/N=C1\NC(Cc2ccccc2)C(=O)N1CCc1c[nH]c2ccccc12 (centres undefined) |  | 25.5 µM (inactive) | 19.7 µM (inactive) | 20.6 µM (inactive) | 22.1 µM (inactive) |  | 34.9 µM (inactive) | 23.9 µM (inactive) |  | 18.4 µM (inactive) | 37.1 µM (inactive) | 37.4 µM (inactive) |  | 25.6 µM (inactive) | 37 µM (inactive) | 34.9 µM (inactive) |  | 29.4 µM | 
4 | CN(C)c1ccc(/C=C2\N=C(c3ccc([N+](=O)[O-])cc3)OC2=O)cc1 | > 100 µM (inactive) | 43.7 µM (inactive) | 99.1 µM (inactive) | 34.8 µM (inactive) | 41 µM (inactive) | 27.1 µM (inactive) | 72.6 µM (inactive) | 36.1 µM (inactive) | 78.9 µM (inactive) | > 100 µM (inactive) | > 100 µM (inactive) | 74.8 µM (inactive) | 56.2 µM (inactive) | 41.7 µM (inactive) | 99.8 µM (inactive) | 67.6 µM (inactive) | 53.2 µM (inactive) | 20 µM | 
5 | S=C1CSc2c(ccc3ccccc23)N1 | > 100 µM (inactive) | > 100 µM (inactive) | > 100 µM (inactive) | > 100 µM (inactive) | > 100 µM (inactive) |  | > 100 µM (inactive) | > 100 µM (inactive) | > 100 µM (inactive) | 9.98 µM (inactive) | > 100 µM (inactive) | > 100 µM (inactive) | > 100 µM (inactive) | > 100 µM (inactive) | > 100 µM (inactive) |  | > 100 µM (inactive) | > 100 µM | > 100 µM (inactive)
6 | CN1C2CC(=O)CC1[C@@H]1OC(c3ccccc3)O[C@H]21 (some centres undefined) | > 100 µM (inactive) | > 100 µM (inactive) | > 100 µM (inactive) | > 100 µM (inactive) | > 100 µM (inactive) |  | > 100 µM (inactive) | > 100 µM (inactive) | > 100 µM (inactive) | > 100 µM (inactive) | > 100 µM (inactive) | > 100 µM (inactive) | > 100 µM (inactive) | > 100 µM (inactive) | > 100 µM (inactive) | > 100 µM (inactive) | > 100 µM (inactive) | > 100 µM | > 100 µM (inactive)
7 | S=C(NCCc1ccccn1)N/N=C/c1ccccn1 | < 0.01 µM (active) | < 0.01 µM (active) | < 0.01 µM (active) | < 0.01 µM (active) | < 0.01 µM (active) |  |  | < 0.01 µM (active) | 1.91 µM (inactive) | < 0.0108 µM (active) | 0.0598 µM (active) | 0.0489 µM (active) | 0.0115 µM (active) | < 0.01 µM (active) | 2.28 µM (inactive) | < 0.01 µM (active) |  |  | 0.0147 µM (active)
8 | CSc1cc(Cl)c(C)cc1S(=O)(=O)NC(=O)NNc1cccc(C(F)(F)F)n1 | > 100 µM (inactive) | > 100 µM (inactive) | > 100 µM (inactive) | > 100 µM (inactive) |  |  | > 100 µM (inactive) | > 100 µM (inactive) | > 100 µM (inactive) | 20.9 µM (inactive) | > 100 µM (inactive) | > 100 µM (inactive) | > 100 µM (inactive) |  | > 100 µM (inactive) | > 100 µM (inactive) | > 100 µM (inactive) | > 100 µM | > 100 µM (inactive)
9 | CSC1=N/C(=C\c2ccc(Cl)cc2)C(=O)N1CN1CCCCC1 |  | 26.5 µM (inactive) | 60.1 µM (inactive) | 37.7 µM (inactive) |  |  | 35.6 µM (inactive) | 53.7 µM (inactive) | 56.8 µM (inactive) | 62.7 µM (inactive) | > 100 µM (inactive) | 37.1 µM (inactive) | 35.3 µM (inactive) | 37.4 µM (inactive) |  | 34.9 µM (inactive) | 47.8 µM (inactive) | 25.9 µM | 54.3 µM (inactive)
10 | CC(=O)OCC1OC(SC2=N/C(=C\c3ccc(Br)s3)C(=O)N2CN2CCOCC2)C(OC(C)=O)C(OC(C)=O)C1OC(C)=O (centres undefined) | 17.9 µM (inactive) |  | 18.8 µM (inactive) | 13.9 µM (inactive) | 3.77 µM (inactive) |  | 15.5 µM (inactive) | 10.3 µM (inactive) | 18 µM (inactive) | 20 µM (inactive) | 11.3 µM (inactive) | 16.3 µM (inactive) | 23 µM (inactive) | 5.97 µM (inactive) | 19.9 µM (inactive) | 14.9 µM (inactive) | 16.3 µM (inactive) | 16.6 µM | 20.4 µM (inactive)
11 | COc1ccc(C2S/C(=C\c3ccccc3)C(=O)N2NC(=O)Cc2ccccc2)cc1 (centres undefined) | > 100 µM (inactive) | 49.3 µM (inactive) | > 100 µM (inactive) | > 100 µM (inactive) | 55.8 µM (inactive) | > 100 µM (inactive) | > 100 µM (inactive) | > 100 µM (inactive) |  | > 100 µM (inactive) | > 100 µM (inactive) | > 100 µM (inactive) |  | > 100 µM (inactive) |  | > 100 µM (inactive) | > 100 µM (inactive) | 40.7 µM | 
12 | NNC(=O)c1ccccc1NC(=O)/C(=C/c1ccccc1O)NC(=O)c1ccccc1 | 12.9 µM (inactive) | > 100 µM (inactive) | > 100 µM (inactive) | 88.3 µM (inactive) | > 100 µM (inactive) | 38.9 µM (inactive) | > 100 µM (inactive) | > 100 µM (inactive) | 4.56 µM (inactive) | > 100 µM (inactive) | 26.5 µM (inactive) | 18.1 µM (inactive) |  | > 100 µM (inactive) | 24.1 µM (inactive) | > 100 µM (inactive) | 33.6 µM (inactive) | 21.7 µM | 15.6 µM (inactive)
13 | COc1ccc(NC(/C(C(=O)c2ccccc2)=C(\O)C(=O)/C=C(\O)c2ccccc2)c2ccc(OC)cc2)cc1 (centres undefined) | 33.2 µM (inactive) | 32.8 µM (inactive) | 31 µM (inactive) | 35.8 µM (inactive) | 34.1 µM (inactive) | 7.6 µM (inactive) | 45.8 µM (inactive) | 44.3 µM (inactive) |  | 42.8 µM (inactive) | > 100 µM (inactive) | 59.6 µM (inactive) | 39.3 µM (inactive) | 24.2 µM (inactive) | 65.8 µM (inactive) |  | 38.9 µM (inactive) | 42.1 µM | 40.3 µM (inactive)
14 | CCCCCCCCCCCCCCCCNC(=O)/C(O)=C/C(=O)c1ccc(C)cc1 | > 10 µM (inactive) | > 10 µM (inactive) | > 10 µM (inactive) |  | 8.05 µM (inactive) |  | > 10 µM (inactive) | > 10 µM (inactive) | > 10 µM (inactive) | > 10 µM (inactive) | > 10 µM (inactive) | > 10 µM (inactive) | 3.32 µM (inactive) | > 10 µM (inactive) |  | > 10 µM (inactive) | > 10 µM (inactive) | > 10 µM | > 10 µM (inactive)
15 | Nc1ccc(C(c2ccccc2)(c2ccccc2)c2ccccc2)cc1 |  | 29.6 µM (inactive) | > 100 µM (inactive) | 62.1 µM (inactive) | 26.8 µM (inactive) | 14 µM (inactive) | 45.5 µM (inactive) | 70.6 µM (inactive) |  | > 100 µM (inactive) |  | 33.9 µM (inactive) |  | 39 µM (inactive) |  | > 100 µM (inactive) | 29.7 µM (inactive) | 78.7 µM | 
16 | O=C1NC2ON=C(c3ccccc3)C2C2ON=C(c3ccccc3)N12 (centres undefined) | > 100 µM (inactive) |  | > 100 µM (inactive) |  |  |  | 41.2 µM (inactive) |  | 39.6 µM (inactive) |  | > 100 µM (inactive) | 64.6 µM (inactive) | 72.4 µM (inactive) |  | 92 µM (inactive) |  |  | 43.4 µM | 45.9 µM (inactive)
17 | CCOC(=O)c1c(NC(=O)c2ccc(OC)cc2)sc2c1CCCC2 | > 100 µM (inactive) | > 100 µM (inactive) | > 100 µM (inactive) | > 100 µM (inactive) | 2.25 µM (inactive) |  | > 100 µM (inactive) | > 100 µM (inactive) | > 100 µM (inactive) | > 100 µM (inactive) | > 100 µM (inactive) | > 100 µM (inactive) | > 100 µM (inactive) | > 100 µM (inactive) | > 100 µM (inactive) | > 100 µM (inactive) | > 100 µM (inactive) |  | > 100 µM (inactive)
